Results published in US20200399262A1, “COMPOUNDS FOR INHIBITING PROTEIN DEGRADATION AND METHODS OF USE THEREOF IN THE TREATMENT OF CANCER” (PI Therapeutics Ltd, priority 2018, published 2020).

Legend:
Assay in all cases: Cell viability panel, ATPlite 1Step
Format in all cases: cell-based
[1] = test system: 5637; settings: Bladder carcinoma, 72 h exposure, read-out: Compound EC50
Method: (§1) Cell viability panel studies. Cells were diluted in the corresponding ATCC recommended medium and dispensed in a 384-well plate, depending on the cell line used, at a density of 200-6400 cells per well. For each used cell line, the optimal cell density was used. Compound was serially diluted and 8 concentration (0.04-32 μM) were added to the cells for 72 h exposure. At t=end, of ATPlite 1Step™ (PerkinElmer) were used to calculate cell viability. Cell lines marked with asterisk were seeded 24 h prior to treatment in 96-well plates at the density range of 5,000-40,000 cells/well, according to duplication rate, in RPMI 1640 medium containing 10% fetal bovine serum and 2 mM L-glutamine. Compounds were diluted from 10 mM DMSO stock and treatment was applied at the range of 0.04-1 μM. Following incubation at 37° C. for 48 hours with increasing concentrations of the compounds, viability was determined with CyQUANT® Direct Assay Kit (Invitrogen). Output intensities were normalized to values after treatment with DMSO alone, and EC50 values were calculated using the absorbance measurements [time zero, (Tz), growth control, (C), plus the test growth at the four drug concentration levels (Ti)] as follows: [(Ti−Tz)/(C−Tz)]×100 for concentrations for which Ti>/=Tz; [(Ti−Tz)/Tz]×100 for concentrations for which Ti−<Tz.

[2] = test system: 786-O; settings: Homo sapiens, 786-0, Renal cell carcinoma, 72 h exposure, read-out: Compound EC50
Method: as §1

[3] = test system: A-427; settings: Homo sapiens, Lung adenocarcinoma, 72 h exposure, read-out: Compound EC50
Method: as §1

[4] = test system: A-498; settings: Homo sapiens, A498, Renal cell carcinoma, 72 h exposure, read-out: Compound EC50
Method: as §1

[5] = test system: A-549; settings: Homo sapiens, A549, Lung adenocarcinoma, 72 h exposure, read-out: Compound EC50
Method: as §1

[6] = test system: AU-565; settings: Homo sapiens, AU565, Breast adenocarcinoma, 72 h exposure, read-out: Compound EC50
Method: as §1

[7] = test system: BT-20; settings: Homo sapiens, Invasive ductal carcinoma, 72 h exposure, read-out: Compound EC50
Method: as §1

[8] = test system: BT-549; settings: Homo sapiens, Invasive ductal carcinoma, 72 h exposure, read-out: Compound EC50
Method: as §1

[9] = test system: CAL 27; settings: Homo sapiens, Tongue squamous cell carcinoma, 72 h exposure, read-out: Compound EC50
Method: as §1

[10] = test system: COLO 829; settings: Homo sapiens, Cutaneous melanoma, 72 h exposure, read-out: Compound EC50
Method: as §1

[11] = test system: DB; settings: Homo sapiens, Diffuse large B-cell lymphoma, 72 h exposure, read-out: Compound EC50
Method: as §1

[12] = test system: DLD-1; settings: Homo sapiens, Colon adenocarcinoma, 72 h exposure, read-out: Compound EC50
Method: as §1

[13] = test system: DU4475; settings: Homo sapiens, DU-4475, Breast carcinoma, 72 h exposure, read-out: Compound EC50
Method: as §1

[14] = test system: DoTc2 4510; settings: Homo sapiens, Cervical carcinoma, 72 h exposure, read-out: Compound EC50
Method: as §1

[15] = test system: HCT-15; settings: Homo sapiens, Colon adenocarcinoma, 72 h exposure, read-out: Compound EC50
Method: as §1

[16] = test system: HuTu 80; settings: Homo sapiens, HuTu80, Duodenal adenocarcinoma, 72 h exposure, read-out: Compound EC50
Method: as §1

[17] = test system: K-562; settings: Homo sapiens, K562, Chronic myelogenous leukemia, 72 h exposure, read-out: Compound EC50
Method: as §1

[18] = test system: KU812; settings: Homo sapiens, Chronic myelogenous leukemia, 72 h exposure, read-out: Compound EC50
Method: as §1

[19] = test system: LS411N; settings: Homo sapiens, LS-411N, Cecum adenocarcinoma, 72 h exposure, read-out: Compound EC50
Method: as §1

[20] = test system: OVCAR-3; settings: Homo sapiens, High grade ovarian serous adenocarcinoma, 72 h exposure, read-out: Compound EC50
Method: as §1

[21] = test system: RD; settings: Homo sapiens, Embryonal rhabdomyosarcoma, 72 h exposure, read-out: Compound EC50
Method: as §1

[22] = test system: RL95-2; settings: Homo sapiens, Endometrial adenosquamous carcinoma, 72 h exposure, read-out: Compound EC50
Method: as §1

[23] = test system: RT4; settings: Homo sapiens, RT-4, Bladder carcinoma, 72 h exposure, read-out: Compound EC50
Method: as §1

[24] = test system: SHP-77; settings: Homo sapiens, SHP77, Small cell lung carcinoma, 72 h exposure, read-out: Compound EC50
Method: as §1

[25] = test system: SJCRH30; settings: Alveolar rhabdomyosarcoma, 72 h exposure, read-out: Compound EC50
Method: as §1

[26] = test system: SK-N-AS; settings: Homo sapiens, Neuroblastoma, 72 h exposure, read-out: Compound EC50
Method: as §1

[27] = test system: SNU-C2B; settings: Homo sapiens, Cecum adenocarcinoma, 72 h exposure, read-out: Compound EC50
Method: as §1

[28] = test system: SW626; settings: Homo sapiens, Colon adenocarcinoma, 72 h exposure, read-out: Compound EC50
Method: as §1

[29] = test system: SW982; settings: Homo sapiens, Biphasic synovial sarcoma, 72 h exposure, read-out: Compound EC50
Method: as §1

What does the source list for CN(C)CCCS(=O)(=O)N1C/C(=C\c2ccc(C#N)cc2)C(=O)/C(=C/c2ccc(C#N)cc2)C1 [Compound AA]?
EC50 [1]: < 0.3 µM; EC50 [2]: < 0.3 µM; EC50 [3]: < 0.3 µM; EC50 [4]: 0.3 to 1 µM; EC50 [5]: ≥ 1 µM; EC50 [6]: < 0.3 µM; EC50 [7]: ≥ 1 µM; EC50 [8]: < 0.3 µM; EC50 [9]: < 0.3 µM; EC50 [10]: < 0.3 µM; EC50 [11]: < 0.3 µM; EC50 [12]: < 0.3 µM; EC50 [13]: 0.3 to 1 µM; EC50 [14]: < 0.3 µM; EC50 [15]: 0.3 to 1 µM; EC50 [16]: < 0.3 µM; EC50 [17]: < 0.3 µM; EC50 [18]: < 0.3 µM; EC50 [19]: 0.3 to 1 µM; EC50 [20]: 0.3 to 1 µM; EC50 [21]: < 0.3 µM; EC50 [22]: < 0.3 µM; EC50 [23]: 0.3 to 1 µM; EC50 [24]: 0.3 to 1 µM; EC50 [25]: < 0.3 µM; EC50 [26]: < 0.3 µM; EC50 [27]: 0.3 to 1 µM; EC50 [28]: < 0.3 µM; EC50 [29]: < 0.3 µM
